{"source": "paper PMC9533837", "about": "(Antiviral Research, 2003)", "key": {"[1]": {"system": "VAR-BSH (1975 Bangladesh isolate of VAR major)", "assay": "organism not typed", "type": "cell-based, variola major"}, "[2]": {"system": "VAR-BSH (1975 Bangladesh isolate of VAR major)", "assay": "organism not typed", "type": "cell-based, variola major", "remark": "listed apart in the source"}, "[3]": {"system": "VAR-YAM (1946 Japan Yamada isolate of VAR major)", "assay": "organism not typed", "type": "cell-based, variola major"}, "[4]": {"system": "VAR-YAM (1946 Japan Yamada isolate of VAR major)", "assay": "organism not typed", "type": "cell-based, variola major", "remark": "listed apart in the source"}, "[5]": {"system": "VAR-GAR (1966 Brazil Garcia isolate of VAR minor)", "assay": "organism not typed", "type": "cell-based, variola minor"}, "[6]": {"system": "VAR-GAR (1966 Brazil Garcia isolate of VAR minor)", "assay": "organism not typed", "type": "cell-based, variola minor", "remark": "listed apart in the source"}, "[7]": {"system": "MPX Zaire (V79-1-005-Scab)", "assay": "organism not typed", "type": "cell-based, monkeypox"}, "[8]": {"system": "MPX Zaire (V79-1-005-Scab)", "assay": "organism not typed", "type": "cell-based, monkeypox", "remark": "listed apart in the source"}, "CPX Brighton [9]": {"system": "CPX Brighton", "assay": "organism not typed", "type": "cell-based, cowpox"}, "CPX Brighton [10]": {"system": "CPX Brighton", "assay": "organism not typed", "type": "cell-based, cowpox", "remark": "listed apart in the source"}, "VAC Copenhagen [11]": {"system": "VAC Copenhagen", "assay": "microbe, parasite or virus in culture", "type": "cell-based, vaccinia virus"}, "VAC Copenhagen [12]": {"system": "VAC Copenhagen", "assay": "microbe, parasite or virus in culture", "type": "cell-based, vaccinia virus", "remark": "listed apart in the source"}, "CPX": {"system": "CPX", "design": "species or system mice", "conditions": "mouse, in vivo"}, "VAC": {"system": "VAC", "design": "species or system mice", "conditions": "mouse, in vivo"}, "Vero cells": {"system": "Vero cells", "conditions": "African green monkey"}, "LLC-MK2 cells": {"system": "LLC-MK2 cells", "conditions": "rhesus monkey"}}, "note": "Like-named read-outs stand apart in the source and are kept apart here.", "data": [{"molecule": "Nc1nccc2c1ncn2C1C=C(CO)C(O)C1O", "note": "(single isomer, unassigned; (-)) [C3-Npc A, (−)-9-[trans-2′-trans-3′-dihydroxy-4′-hydroxymethyl-cyclopent-4′-enyl]-3-deazaadenine]", "values": [{"measurement": "Therapeutic index (TI) VAR-BSH Vero", "setting": "[1]", "result": 3333}, {"measurement": "IC50", "setting": "[1]; Vero, read-out: IC50 VAR-BSH Vero", "result": 0.03, "unit": "µg/mL"}, {"measurement": "Therapeutic index (TI) VAR-BSH LLC-MK2", "setting": "[2]", "result": 213}, {"measurement": "IC50", "setting": "[2]; LLC-MK2, read-out: IC50 VAR-BSH LLC-MK2", "result": 0.47, "unit": "µg/mL"}, {"measurement": "Therapeutic index (TI) VAR-YAM Vero", "setting": "[3]", "result": 2500}, {"measurement": "IC50", "setting": "[3]; Vero, read-out: IC50 VAR-YAM Vero", "result": 0.04, "unit": "µg/mL"}, {"measurement": "Therapeutic index (TI) VAR-YAM LLC-MK2", "setting": "[4]", "result": 417}, {"measurement": "IC50", "setting": "[4]; LLC-MK2, read-out: IC50 VAR-YAM LLC-MK2", "result": 0.24, "unit": "µg/mL"}, {"measurement": "Therapeutic index (TI) VAR-GAR Vero", "setting": "[5]", "result": 2500}, {"measurement": "IC50", "setting": "[5]; Vero, read-out: IC50 VAR-GAR Vero", "result": 0.04, "unit": "µg/mL"}, {"measurement": "Therapeutic index (TI) VAR-GAR LLC-MK2", "setting": "[6]", "result": 222}, {"measurement": "IC50", "setting": "[6]; LLC-MK2, read-out: IC50 VAR-GAR LLC-MK2", "result": 0.45, "unit": "µg/mL"}, {"measurement": "Therapeutic index (TI) MPX Vero", "setting": "[7]", "result": 10000}, {"measurement": "IC50", "setting": "[7]; Vero, read-out: IC50 MPX Vero", "result": 0.01, "unit": "µg/mL"}, {"measurement": "Therapeutic index (TI) MPX LLC-MK2", "setting": "[8]", "result": 2000}, {"measurement": "IC50", "setting": "[8]; LLC-MK2, read-out: IC50 MPX LLC-MK2", "result": 0.05, "unit": "µg/mL"}, {"measurement": "Therapeutic index (TI) CPX Vero", "setting": "CPX Brighton [9]", "result": 1.0}, {"measurement": "IC50", "setting": "CPX Brighton [9]; Vero, read-out: IC50 CPX Vero", "result": "> 100", "unit": "µg/mL"}, {"measurement": "Therapeutic index (TI) CPX LLC-MK2", "setting": "CPX Brighton [10]", "result": 1.0}, {"measurement": "IC50", "setting": "CPX Brighton [10]; LLC-MK2, read-out: IC50 CPX LLC-MK2", "result": "> 100", "unit": "µg/mL"}, {"measurement": "Therapeutic index (TI) VAC Vero", "setting": "VAC Copenhagen [11]", "result": 5000}, {"measurement": "IC50", "setting": "VAC Copenhagen [11]; Orthopoxvirus vaccinia, Vero, read-out: IC50 VAC Vero", "result": 0.02, "unit": "µg/mL"}, {"measurement": "Therapeutic index (TI) VAC LLC-MK2", "setting": "VAC Copenhagen [12]", "result": 2000}, {"measurement": "IC50", "setting": "VAC Copenhagen [12]; Orthopoxvirus vaccinia, LLC-MK2, read-out: IC50 VAC LLC-MK2", "result": 0.05, "unit": "µg/mL"}, {"measurement": "protective effect on CPX-infected mice", "setting": "CPX", "result": "modest protective effect"}, {"measurement": "protective effect on VAC-infected mice", "setting": "VAC", "result": "modest protective effect"}, {"measurement": "Cytotoxicity TC50 Vero", "setting": "Vero cells", "result": ">100", "unit": "µg/mL"}, {"measurement": "Cytotoxicity TC50 LLC-MK2", "setting": "LLC-MK2 cells", "result": ">100", "unit": "µg/mL"}]}]}
